The source of these data is patent publication US11167014B2, “Solid glp-1 derivative compositions for oral administration” (Novo Nordisk A/S, priority 2017, dated 2021).

One series relates to NCI-N87 cell monolayers. Nature of the series: Assay (I): epithelial cell monolayer permeability (transepithelial transport, Papp) and TEER, NCI-N87.
In a further series the test system is Caco-2 cell monolayers. Nature of the series: Assay (I): epithelial cell monolayer permeability (transepithelial transport, Papp) and TEER, Caco-2. (In general: Caco-2 monolayers are a common model of the intestinal barrier.)
The mark [1] stands for this setting: NCI-N87, experiment of Table 3 (semaglutide).
[2] abbreviates: NCI-N87, experiment of Table 4 (FD4).
The mark [3] stands for this setting: Caco-2, experiment of Table 1 (semaglutide).
The mark [4] stands for this setting: Caco-2, experiment of Table 2 (Compound B).
Where [5] appears, read: Caco-2, experiment of Table 5 (FD4).
Where [6] appears, read: Caco-2, experiments of Tables 9-10 (semaglutide, FD4).

“And” between values parts separate entries of the source, which are not always exact repeats. Equal entries are not always repeated.

Procedure for Caco-2 cell monolayers: Caco-2 cells were seeded in culturing flasks and passaged in Dulbecco's Modified Eagle' (DMEM) medium supplemented with 10% fetal bovine serum, 1% penicillin/streptomycin (100 U/ml and 100 μg/ml, respectively), 1% L-glutamine and 1% nonessential amino acids. Caco-2 cells were seeded onto tissue culture treated polycarbonate filters in 12-well Corning Transwell plates (1.13 cm^2, 0.4 μm pore size) at a density of 10^5 cells/well.
(§1) Cell monolayers were grown in an atmosphere of 5% CO2-95% O2 at 37° C., replacing growth media every other day. The experiment was performed on day 14-16 after cell seeding.
Before the experiment, cell monolayers were equilibrated for 60 min with transport buffer on both sides of the epithelium. The transport buffer consisted of Hank's balanced saline solution containing 0.1% Ovalbumin (w/v), 0.005% Tween20 (w/w) and 10 mM HEPES, adjusted to pH 7.4. The transport of [^3H]mannitol (PerkinElmer), was measured to verify the integrity of the epithelium.
(§2) Translocation of a given compound across cell layers is expressed as the apparent permeability (Papp), given by:
(§3) [formula] where dQ/dt is the steady-state flux across the cell layer (pmol/s), A is the surface area (1.12 cm^2), and C0 is the initial sample concentration.
Before and after the experiment the transepithelial electrical resistance (TEER) of the cell monolayers was monitored. After experiments, cells were washed twice with buffer and replenished with medium for 24 h TEER recovery to ensure that the cell monolayers were viable and the enhancer effects were transient. The TEER was measured with EVOM™ Epithelial Voltohmmeter connected to Chopsticks. For Caco-2 monolayers the starting TEER was typically around 1000 Ω·cm^2 and for N87 monolayers it was around 1600 Ω·cm^2.
Procedure for NCI-N87 cell monolayers: N87 cells were seeded onto tissue culture treated polyester filters in 12-well Corning Transwell plates (1.13 cm^2, 0.4 μm pore size) at a density of 10^5 cells/well.
as §1
The amount of test compound transported from the donor chamber (apical side) to the receiver chamber (basolateral side) was measured as described in [1] for Caco-2 monolayers and in [2] for NCl-N87 cell monolayers, in an atmosphere of 5% CO2-95% O2 at 37° C. on a shaking plate (30 rpm). Before the experiment, cell monolayers were equilibrated for 60 min with transport buffer on both sides of the epithelium. The transport buffer consisted of Hank's balanced saline solution containing 0.1% Ovalbumin (w/v), 0.005% Tween20 (w/w) and 10 mM HEPES, adjusted to pH 7.4. The transport of [^3H]mannitol (PerkinElmer), was measured to verify the integrity of the epithelium.
as §2, §3
Before and after the experiment the transepithelial electrical resistance (TEER) of the cell monolayers was monitored. After experiments, cells were washed twice with buffer and replenished with medium for 24 h TEER recovery to ensure that the cell monolayers were viable and the enhancer effects were transient. The TEER was measured with EVOM™ Epithelial Voltohmmeter connected to Chopsticks.

As for `O=C(O)CCCCCCCNC(=O)c1ccccc1O` [SNAC, sodium N-(8-(2-hydroxybenzoyl)amino)caprylate], the “transient decrease in cell monolayer TEER down to % of starting values” (from here on “transient decrease … to % of starting values”) with NCI-N87 cell monolayers (setting [1]) was ~20 % of starting values; in the series with NCI-N87 cell monolayers (setting [2]), ~25 % of starting values; in the series with Caco-2 cell monolayers (setting [3]) it was ~25 % of starting values; in the series with Caco-2 cell monolayers (setting [4]), ~25 % of starting values; with Caco-2 cell monolayers (setting [5]), ~35 % of starting values; in the series on Caco-2 cell monolayers (setting [6]) it was ~35 % of starting values.

For `CCOc1ccc(Cc2cc([C@@H]3O[C@H](CO)[C@@H](O)[C@H](O)[C@H]3O)ccc2Cl)cc1` [dapagliflozin], the “transient decrease … to % of starting values” with NCI-N87 cell monolayers (setting [1]) is ~20 % of starting values; with NCI-N87 cell monolayers (setting [2]) it was ~25 % of starting values; with Caco-2 cell monolayers (setting [3]), ~25 % of starting values; in the series with Caco-2 cell monolayers (setting [4]), ~25 % of starting values; in the series with Caco-2 cell monolayers (setting [5]) it was ~35 % of starting values. The “dapagliflozin concentration for which non-recovering TEER was observed” value with NCI-N87 cell monolayers (NCI-N87, 24 h in fresh medium) was > 2.6 mM; in the series with Caco-2 cell monolayers (Caco-2, 24 h in fresh medium), > 2.7 mM and 3 mM. For the same compound, the “effect alone on Compound B permeability” value in the series on Caco-2 cell monolayers (0.5-2.0 mM dapagliflozin, Caco-2 cell monolayers) is recorded as “negligible effect”.

Consider `OC[C@H]1O[C@@H](c2ccc(Cl)c(Cc3ccc(O[C@H]4CCOC4)cc3)c2)[C@H](O)[C@@H](O)[C@@H]1O` [empagliflozin], for which, in the series with Caco-2 cell monolayers (setting [6]), the “transient decrease … to % of starting values” was ~35 % of starting values.
